# Measurements as given in ChEMBL document CHEMBL1140081 (J Med Chem, 2008).
# Assays:
# [1] = Volume of distribution in rhesus monkey at 1 mg/kg, iv; conditions: in vivo
# [2] = Volume of distribution in dog at 1 mg/kg, iv; format: ADME, organism-based, Canis lupus familiaris; design: dose 1 mg/kg, route intravenous; conditions: in vivo
# [3] = Oral bioavailability in po dosed Sprague-Dawley rat; format: ADME, organism-based; conditions: in vivo
# [4] = Terminal half life in Sprague-Dawley rat at 3 mg/kg, iv; format: ADME, organism-based; design: dose 3 mg/kg, route intravenous; conditions: in vivo, read-out: beta t1/2 (converted)
# [5] = Inhibition of HCV polymerase; design: species or system Hepacivirus hominis
# [6] = Inhibition of human DNA polymerase alpha
# [7] = Plasma clearance in Sprague-Dawley rat at 3 mg/kg, iv; format: ADME, organism-based; design: dose 3 mg/kg, route intravenous
# [8] = system: Human immunodeficiency virus 1; test: Antiviral activity against HIV1 3B in human MT4 cells in presence of 10% heat-inactivated fetal bovine serum; conditions: Human immunodeficiency virus 1, 3B, read-out: CIC95
# [9] = AUC in dog at 2 mg/kg, po; format: ADME, organism-based, Canis lupus familiaris; design: dose 2 mg/kg, route oral; conditions: plasma
# [10] = Inhibition of HIV reverse transcriptase; design: species or system Human immunodeficiency virus
# [11] = AUC in Sprague-Dawley rat at 3 mg/kg, po; format: ADME, organism-based; design: dose 3 mg/kg, route oral; conditions: plasma
# [12] = Oral bioavailability in po dosed dog; format: ADME, organism-based, Canis lupus familiaris; conditions: in vivo
# Cytochrome P450 2D6 = Cytochrome P450 2D6 (Homo sapiens, UniProt P10635); test: Inhibition of CYP2D6; format: ADME
# [13] = AUC in rhesus monkey at 10 mg/kg, po; format: ADME, organism-based, Macaca mulatta; design: dose 10 mg/kg, route oral; conditions: plasma
# [14] = Terminal half life in dog at 1 mg/kg, iv; format: ADME, organism-based, Canis lupus familiaris; design: dose 1 mg/kg, route intravenous; conditions: in vivo, read-out: beta t1/2 (converted)
# DNA polymerase beta = DNA polymerase beta (Homo sapiens, UniProt P06746); test: Inhibition of human DNA polymerase beta
# Cytochrome P450 1A2 = target: T1, Cytochrome P450 1A2 (Homo sapiens, UniProt P05177); test: Inhibition of CYP1A2; format: ADME
# T1 sequence (P05177 whole entry): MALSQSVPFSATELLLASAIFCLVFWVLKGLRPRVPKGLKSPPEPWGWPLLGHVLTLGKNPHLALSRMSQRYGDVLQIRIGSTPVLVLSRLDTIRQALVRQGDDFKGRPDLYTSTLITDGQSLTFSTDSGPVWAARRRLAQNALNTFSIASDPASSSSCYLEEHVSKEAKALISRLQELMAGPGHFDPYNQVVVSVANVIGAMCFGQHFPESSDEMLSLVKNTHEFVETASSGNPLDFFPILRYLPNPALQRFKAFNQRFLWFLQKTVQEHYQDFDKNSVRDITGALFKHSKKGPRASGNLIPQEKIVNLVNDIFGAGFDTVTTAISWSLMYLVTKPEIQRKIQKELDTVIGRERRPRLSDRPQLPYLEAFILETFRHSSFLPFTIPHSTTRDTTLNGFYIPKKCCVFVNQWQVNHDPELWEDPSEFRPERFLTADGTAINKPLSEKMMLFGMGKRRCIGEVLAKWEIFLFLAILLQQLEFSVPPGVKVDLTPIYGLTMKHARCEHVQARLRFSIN
# [15] = Cmax in dog at 10 mg/kg, po; format: ADME, organism-based, Canis lupus familiaris; design: dose 10 mg/kg, route oral; conditions: in vivo
# [16] = Inhibition of human DNA polymerase gamma
# Cytochrome P450 2C9 = Cytochrome P450 2C9 (Homo sapiens, UniProt P11712); test: Inhibition of CYP2C9; format: ADME
# Cytochrome P450 3A4 = Cytochrome P450 3A4 (Homo sapiens, UniProt P08684); test: Inhibition of CYP3A4; format: ADME
# [17] = system: Human immunodeficiency virus 1; test: Antiviral activity against HIV1 with integrase T66I/L74M/V151I mutation by single cycle infectivity assay in presence of 10%FBS; format: functional
# [18] = Cmax in po dosed rhesus monkey; format: ADME, organism-based, Macaca mulatta; design: route oral; conditions: in vivo
# [19] = system: Human immunodeficiency virus 1; test: Antiviral activity against HIV1 with integrase T66I/M154 mutation by single cycle infectivity assay in presence of 10%FBS; format: functional
# [20] = Terminal half life in rhesus monkey at 1 mg/kg, iv; format: ADME, organism-based, Macaca mulatta; design: dose 1 mg/kg, route intravenous; conditions: in vivo, read-out: beta t1/2 (converted)
# [21] = Plasma clearance in rhesus monkey at 1 mg/kg, iv; format: ADME, organism-based, Macaca mulatta; design: dose 1 mg/kg, route intravenous
# [22] = Oral bioavailability in po dosed rhesus monkey; format: ADME, organism-based, Macaca mulatta; conditions: in vivo
# [23] = Volume of distribution in Sprague-Dawley rat at 3 mg/kg, iv; format: ADME, organism-based; design: dose 3 mg/kg, route intravenous; conditions: in vivo
# [24] = system: Human immunodeficiency virus 1; test: Antiviral activity against HIV1 with integrase T66I/S153Y mutation by single cycle infectivity assay in presence of 10%FBS; format: functional
# [25] = Plasma clearance in dog at 1 mg/kg, iv; format: ADME, organism-based, Canis lupus familiaris; design: dose 1 mg/kg, route intravenous
# [26] = Cmax in dog at 2 mg/kg, po; format: ADME, organism-based, Canis lupus familiaris; design: dose 2 mg/kg, route oral; conditions: in vivo
# [27] = system: Human immunodeficiency virus 1; test: Antiviral activity against HIV1 with integrase T125K/F121Y mutation by single cycle infectivity assay in presence of 10%FBS; format: functional
# [28] = Inhibition of HIV ribonuclease H; design: species or system Human immunodeficiency virus
# [29] = system: Human immunodeficiency virus 1; test: Antiviral activity against HIV1 with integrase N155S mutation by single cycle infectivity assay in presence of 10%FBS; format: functional
# [30] = Terminal half life in po dosed rhesus monkey; format: ADME, organism-based, Macaca mulatta; conditions: in vivo, read-out: beta t1/2 (converted)
# [31] = AUC in dog at 10 mg/kg, po; format: ADME, organism-based, Canis lupus familiaris; design: dose 10 mg/kg, route oral; conditions: plasma
# [32] = Cmax in Sprague-Dawley rat at 3 mg/kg, po; format: ADME, organism-based; design: dose 3 mg/kg, route oral; conditions: in vivo
# [33] = system: Human immunodeficiency virus 1; test: Antiviral activity against HIV1 3B in human MT4 cells in presence of 50% normal human serum; format: functional; conditions: read-out: CIC95
# [34] = Plasma clearance in dog at 5 mg/kg, iv; format: ADME, organism-based, Canis lupus familiaris; design: dose 5 mg/kg, route intravenous
# [35] = target: Human immunodeficiency virus type 1 integrase (Human immunodeficiency virus 1, UniProt Q7ZJM1); test: Inhibition of HIV1 recombinant integrase strand transfer activity
# [36] = Cmax in Sprague-Dawley rat at 100 mg/kg, po using 1% methyl cellulose as vehicle; format: ADME, organism-based; design: dose 100 mg/kg, route oral; conditions: in vivo
# [37] = target: Voltage-gated inwardly rectifying potassium channel KCNH2 (Homo sapiens, UniProt Q12809); test: Binding affinity to human ERG
# [38] = AUC in Sprague-Dawley rat at 100 mg/kg, po using PEG400 as vehicle; format: ADME, organism-based; design: dose 100 mg/kg, route oral; conditions: plasma
# [39] = Cmax in rhesus monkey at 10 mg/kg, po; format: ADME, organism-based, Macaca mulatta; design: dose 10 mg/kg, route oral; conditions: in vivo
# [40] = Primary phase half life in dog at 5 mg/kg, iv; format: ADME, organism-based, Canis lupus familiaris; design: dose 5 mg/kg, route intravenous; conditions: in vivo, read-out: alphat1/2 (converted)
# [41] = Terminal half life in dog at 5 mg/kg, iv; format: ADME, organism-based, Canis lupus familiaris; design: dose 5 mg/kg, route intravenous; conditions: in vivo, read-out: beta t1/2 (converted)
# [42] = Cmax in Sprague-Dawley rat at 100 mg/kg, po using PEG400 as vehicle; format: ADME, organism-based; design: dose 100 mg/kg, route oral; conditions: in vivo
# [43] = Terminal half life in dog at 10 mg/kg, po; format: ADME, organism-based, Canis lupus familiaris; design: dose 10 mg/kg, route oral; conditions: in vivo, read-out: beta t1/2 (converted)
# [44] = AUC in Sprague-Dawley rat at 100 mg/kg, po using 1% methyl cellulose as vehicle; format: ADME, organism-based; design: dose 100 mg/kg, route oral; conditions: in vivo
# [45] = Primary phase half life in Sprague-Dawley rat at 3 mg/kg, iv; format: ADME, organism-based; design: dose 3 mg/kg, route intravenous; conditions: in vivo, read-out: alphat1/2 (converted)
# [46] = Terminal half life in po dosed Sprague-Dawley rat; format: ADME, organism-based; conditions: in vivo
# [47] = Volume of distribution in dog at 5 mg/kg, iv; format: ADME, organism-based, Canis lupus familiaris; design: dose 5 mg/kg, route intravenous; conditions: in vivo
# [48] = Primary phase half life in rhesus monkey at 1 mg/kg, iv; format: ADME, organism-based, Macaca mulatta; design: dose 1 mg/kg, route intravenous; conditions: in vivo, read-out: alphat1/2 (converted)
# [49] = Plasma concentration in dog at 10 mg/kg, po after 12 hrs; format: ADME, organism-based, Canis lupus familiaris; design: dose 10 mg/kg, route oral
# [50] = Plasma concentration in dog at 2 mg/kg, po after 12 hrs; format: ADME, organism-based, Canis lupus familiaris; design: dose 2 mg/kg, route oral
# [51] = Cmax in po dosed Sprague-Dawley rat; format: ADME, organism-based; design: route oral; conditions: in vivo
# [52] = Human immunodeficiency virus 1, 3B, MT4
# Cytochrome P450 2C9, sequence (P11712 whole entry): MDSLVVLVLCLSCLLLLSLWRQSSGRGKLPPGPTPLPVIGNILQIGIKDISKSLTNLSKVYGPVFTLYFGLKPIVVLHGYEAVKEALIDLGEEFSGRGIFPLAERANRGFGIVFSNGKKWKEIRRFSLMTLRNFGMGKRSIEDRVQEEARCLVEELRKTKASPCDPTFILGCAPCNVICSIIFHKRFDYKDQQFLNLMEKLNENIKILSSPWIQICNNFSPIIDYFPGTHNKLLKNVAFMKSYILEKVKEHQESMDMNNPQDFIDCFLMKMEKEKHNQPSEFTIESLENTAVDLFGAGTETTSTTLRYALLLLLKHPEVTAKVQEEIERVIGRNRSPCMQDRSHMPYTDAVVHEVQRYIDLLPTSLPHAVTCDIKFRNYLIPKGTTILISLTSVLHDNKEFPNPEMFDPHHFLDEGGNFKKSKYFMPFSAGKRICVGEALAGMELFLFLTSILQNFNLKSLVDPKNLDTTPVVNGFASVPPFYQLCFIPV
# Cytochrome P450 3A4, sequence (P08684 whole entry): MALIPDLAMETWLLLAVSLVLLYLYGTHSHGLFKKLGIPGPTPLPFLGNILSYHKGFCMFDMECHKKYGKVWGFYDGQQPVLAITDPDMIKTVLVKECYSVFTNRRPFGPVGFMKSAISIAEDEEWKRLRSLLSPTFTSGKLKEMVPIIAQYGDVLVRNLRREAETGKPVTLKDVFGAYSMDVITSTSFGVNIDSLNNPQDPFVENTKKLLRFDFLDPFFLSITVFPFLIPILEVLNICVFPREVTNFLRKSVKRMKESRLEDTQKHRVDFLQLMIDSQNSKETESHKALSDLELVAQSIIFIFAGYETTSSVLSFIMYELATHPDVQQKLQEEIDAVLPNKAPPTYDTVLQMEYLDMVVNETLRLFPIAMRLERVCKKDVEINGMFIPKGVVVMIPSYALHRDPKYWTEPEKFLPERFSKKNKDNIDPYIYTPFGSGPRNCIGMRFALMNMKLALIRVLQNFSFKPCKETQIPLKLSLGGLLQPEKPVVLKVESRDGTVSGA
# Cytochrome P450 2D6, sequence (P10635 whole entry): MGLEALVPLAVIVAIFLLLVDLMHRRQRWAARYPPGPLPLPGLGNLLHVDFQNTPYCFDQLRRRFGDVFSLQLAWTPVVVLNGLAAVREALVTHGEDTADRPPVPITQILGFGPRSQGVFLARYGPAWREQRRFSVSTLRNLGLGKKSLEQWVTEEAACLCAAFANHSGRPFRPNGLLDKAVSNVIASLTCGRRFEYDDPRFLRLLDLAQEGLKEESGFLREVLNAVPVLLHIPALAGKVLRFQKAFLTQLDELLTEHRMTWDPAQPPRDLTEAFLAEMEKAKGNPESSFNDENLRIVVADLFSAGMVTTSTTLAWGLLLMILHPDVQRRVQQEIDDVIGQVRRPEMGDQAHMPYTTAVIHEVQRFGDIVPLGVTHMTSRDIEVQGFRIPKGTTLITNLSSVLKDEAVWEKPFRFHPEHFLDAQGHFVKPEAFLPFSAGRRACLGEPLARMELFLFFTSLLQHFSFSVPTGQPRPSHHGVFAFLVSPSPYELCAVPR
# Human immunodeficiency virus type 1 integrase, sequence (Q7ZJM1 whole entry): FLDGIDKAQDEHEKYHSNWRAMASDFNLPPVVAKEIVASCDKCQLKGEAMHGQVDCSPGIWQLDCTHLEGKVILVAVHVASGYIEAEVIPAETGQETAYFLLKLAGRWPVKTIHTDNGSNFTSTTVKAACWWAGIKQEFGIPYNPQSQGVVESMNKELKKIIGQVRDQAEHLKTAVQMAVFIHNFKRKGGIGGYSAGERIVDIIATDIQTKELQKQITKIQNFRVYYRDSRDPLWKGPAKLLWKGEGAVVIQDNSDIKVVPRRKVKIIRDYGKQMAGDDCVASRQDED
# Voltage-gated inwardly rectifying potassium channel KCNH2, sequence (Q12809 whole entry): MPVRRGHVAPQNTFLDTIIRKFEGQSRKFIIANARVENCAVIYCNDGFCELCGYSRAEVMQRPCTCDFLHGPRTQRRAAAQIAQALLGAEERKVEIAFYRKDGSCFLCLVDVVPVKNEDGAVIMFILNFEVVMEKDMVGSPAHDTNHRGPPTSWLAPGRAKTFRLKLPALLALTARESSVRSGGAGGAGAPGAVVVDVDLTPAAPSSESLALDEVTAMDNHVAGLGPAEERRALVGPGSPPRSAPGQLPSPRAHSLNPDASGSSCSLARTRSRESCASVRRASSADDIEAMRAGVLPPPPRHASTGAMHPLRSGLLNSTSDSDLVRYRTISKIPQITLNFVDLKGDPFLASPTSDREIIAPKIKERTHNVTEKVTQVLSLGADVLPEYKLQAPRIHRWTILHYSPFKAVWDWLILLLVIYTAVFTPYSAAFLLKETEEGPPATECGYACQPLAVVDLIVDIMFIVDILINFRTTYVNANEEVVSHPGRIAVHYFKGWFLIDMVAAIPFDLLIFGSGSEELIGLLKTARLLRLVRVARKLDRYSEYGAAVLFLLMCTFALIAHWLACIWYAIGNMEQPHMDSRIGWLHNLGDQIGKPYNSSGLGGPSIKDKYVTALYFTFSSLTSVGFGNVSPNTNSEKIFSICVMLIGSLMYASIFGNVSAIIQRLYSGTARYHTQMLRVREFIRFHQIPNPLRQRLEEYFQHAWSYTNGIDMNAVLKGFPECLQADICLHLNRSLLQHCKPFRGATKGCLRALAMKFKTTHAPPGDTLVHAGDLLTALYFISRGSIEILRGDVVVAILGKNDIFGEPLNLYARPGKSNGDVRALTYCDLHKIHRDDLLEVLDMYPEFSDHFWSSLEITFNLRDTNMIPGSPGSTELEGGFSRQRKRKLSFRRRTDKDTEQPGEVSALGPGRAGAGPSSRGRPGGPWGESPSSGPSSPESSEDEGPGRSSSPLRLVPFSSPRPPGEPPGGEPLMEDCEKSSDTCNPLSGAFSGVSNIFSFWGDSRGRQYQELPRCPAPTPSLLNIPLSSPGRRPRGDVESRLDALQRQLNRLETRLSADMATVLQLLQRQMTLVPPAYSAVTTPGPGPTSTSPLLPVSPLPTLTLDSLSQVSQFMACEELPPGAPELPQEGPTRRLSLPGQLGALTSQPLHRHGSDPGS
smiles,measurement,setting,value
Cc1nnc(C(=O)NC(C)(C)c2nc(C(=O)NCc3ccc(F)cc3)c(O)c(=O)n2C)o1,Vd,[1],1.2 L/kg
same,Vd,[2],0.9 L/kg
same,bioavailability,[3],37%
same,half-life,[4],2 h
same,IC50,[5],> 50 µM
same,IC50,[6],> 50 µM
same,clearance,[7],39 mL/min/kg
same,IC95,[8],0.019 µM
same,AUC,[9],7 µM·h
same,IC50,[10],> 50 µM
same,AUC,[11],1 µM·h
same,bioavailability,[12],45%
same,IC50,Cytochrome P450 2D6,> 50 µM
same,AUC,[13],1.8 µM·h
same,half-life,[14],11 h
same,IC50,DNA polymerase beta,> 50 µM
same,IC50,Cytochrome P450 1A2,> 50 µM
same,Cmax,[15],8 µM
same,IC50,[16],> 50 µM
same,IC50,Cytochrome P450 2C9,> 50 µM
same,IC50,Cytochrome P450 3A4,> 50 µM
same,Activity,[17],6%
same,Cmax,[18],0.3 µM
same,Activity,[19],1%
same,half-life,[20],4 h
same,clearance,[21],18 mL/min/kg
same,bioavailability,[22],8%
same,Vd,[23],2 L/kg
same,Activity,[24],1%
same,clearance,[25],6 mL/min/kg
same,Cmax,[26],3 µM
same,Activity,[27],8%
same,IC50,[28],> 50 µM
same,Activity,[29],10%
same,half-life,[30],7 h
same,AUC,[31],21 µM·h
same,Cmax,[32],1.2 µM
same,IC95,[33]; [52],0.031 µM
CN(C)C(=O)C(=O)NC(C)(C)c1nc(C(=O)NCc2ccc(F)cc2)c(O)c(=O)n1C,Vd,[1],2.9 L/kg
same,clearance,[34],11 mL/min/kg
same,half-life,[4],6 h
same,IC50,[5],> 50 µM
same,IC50,[6],> 50 µM
same,IC50,[35],0.01 µM
same,clearance,[7],20 mL/min/kg
same,Cmax,[36],12 µM
same,IC50,[37],> 50 µM
same,IC95,[8],0.045 µM
same,AUC,[38],49 µM·h
same,IC50,[10],> 50 µM
same,Cmax,[39],4.5 µM
same,AUC,[11],0.7 µM·h
same,half-life,[40],1.2 h
same,half-life,[41],16 h
same,IC50,Cytochrome P450 2D6,> 50 µM
same,AUC,[13],5.2 µM·h
same,Cmax,[42],31 µM
same,half-life,[43],4.9 h
same,IC50,DNA polymerase beta,> 50 µM
same,AUC,[44],23 µM·h
same,IC50,Cytochrome P450 1A2,> 50 µM
same,Cmax,[15],11 µM
same,half-life,[45],0.4 h
same,IC50,[16],> 50 µM
same,IC50,Cytochrome P450 2C9,> 50 µM
same,IC50,Cytochrome P450 3A4,> 50 µM
same,Activity,[17],35%
same,Activity,[19],5%
same,half-life,[20],3 h
same,clearance,[21],14 mL/min/kg
same,bioavailability,[22],24%
same,Vd,[23],1.3 L/kg
same,Activity,[24],8%
same,half-life,[46],0.9 h
same,Vd,[47],1.1 L/kg
same,Activity,[27],19%
same,IC50,[28],> 50 µM
same,Activity,[29],40%
same,half-life,[48],0.9 h
same,half-life,[30],1.9 h
same,AUC,[31],23 µM·h
same,Cmax,[32],0.6 µM
same,IC95,[33]; [52],0.074 µM
Cc1nnc(C(=O)NC(C)(C)c2nc(C(=O)NCc3ccc(F)cc3)c([O-])c(=O)n2C)o1.[K+] [RALTEGRAVIR POTASSIUM],bioavailability,[3],45%
same,AUC,[9],11 µM·h
same,AUC,[11],1.3 µM·h
same,bioavailability,[12],69%
same,half-life,[43],13 h
same,Cmax,[15],24 µM
same,concentration at 12 h,[49],0.35 µM
same,concentration at 12 h,[50],0.16 µM
same,half-life,[46],7.5 h
same,Cmax,[26],4.6 µM
same,Cmax,[51],1.6 µM
same,IC95,[33],0.031 µM
